Where two headings read alike, the source gives them in different places.
Tests used:
[1] = tested on: protein/DNA complex with Fragment 127 of the MHC class I 5′-flanking region; experiment: Gel shift (EMSA) with downstream 127 class I probe, extracts from treated FRTL-5 cells; type: cell-based, rat; details: 5H cells treated 48 hours
Description: Cells were grown in 6H medium with 5 % calf serum for 6-7 days to 70-80% confluence, then shifted to 5H medium with 5 % calf serum for 5 days. TSH (1×10^−10 M), gamma-interferon (100 U/ml), MMI (5 mM), and different concentrations of MMI derivatives or tautomeric cyclic thiones (0.0001 to 10 mM) were added as appropriate for […]. Cells were then harvested and extracts were made by a modification of a method of Dignam, J., et al. Methods in Enzymology, 101:582-598 (1983). In brief, cells were harvested by scraping after being washed twice with cold phosphate-buffer saline (PBS). Subsequently they were pelleted, washed in cold PBS and then pelleted again. The pellet was resuspended in Dignam buffer C (20 mM Hepes buffer at pH 7.9, 1.5 mM MgCl2, 0.42 M NaCl, 25% glycerol, 0.5 mM dithiotreitol (DTT), 0.5 mM phenylmethylsulfonylfluoride (PMSF), 1 […] pepstatin). The final NaCl concentration was adjusted on the basis of cell pellet volume to 0.42 M and cells were lysed by repeated cycles of freezing and thawing. Extracts were then centrifuged at 10,000×g at 4° C. for 20 min. The supernatant was recovered, aliquoted and stored at −70° C.
Binding reactions were performed in a volume of 20 μl for 30 min at room temperature. The typical reaction mixture contained 1.5 fmol of ^32P DNA, 3 μg of cell extracts, 1 to 3 μg of poly (dI-dC) in 10 mM Tris-Cl (pH 7.9), 1 mM MgCl2, 1 mM DTT, 1 mM ethylenediamine tetra acetic acid (EDTA), and 5 % glycerol. After incubation, reaction mixtures were subjected to electrophoresis in 4% polyacrylamide gels for 90-120 min at 160 V in 0.5× TBE (Sambrook, J., et al., Molecular Cloning: A Laboratory Manual, 2nd ed. Cold Spring Harbor Press, NY, 2: 11.23-11.44 (1989)), then dried and autoradiographed. Probes were labeled with [α32P] deoxy CTP by Klenow enzyme (In Vitro labeling kit, Amersham) following the manufacturer's instructions, or by [γ^32P] ATP using T4 polynucleotide kinase. Labeled probes were then purified either through G-50 columns (5 prime→3 Prime) or on an 8% polyacrylamide gel.
FIG. 3 denotes the sequence of the downstream region of the PD1 promoter. The location of enhancer A (−180 to −170 bp), the interferon response element (IRE; −161 to −150 bp), and the cAMP response element (CRE; −107 to −100 bp) are noted. The downstream silencer is between −127 and −80 bp (Saji, et al., ibid, 20096-20107 (1997)). Using a 127 bp probe, −125 to +1 bp, MMI (lane 4) or TSH (lane 10) induce the formation of a rapidly migrating protein/DNA complex (FIG. 4) which is clearly evident 24 to 48 h after SH cells are treated. MMI derivatives can also increase this complex, as illustrated for compound 8 in FIG. 4 (lanes 1 to 3). The time most suitable for measurement is 24 to 48 h (FIG. 4) the complex can be quantitated by comparison to control (lane 7 or 9) using densitometry or the phosphoimager as noted earlier. In this case, the increase over control (set at 1) is measured in arbitrary units relative to the maximal increase induced by 5 mM MMI which is arbitrarily set at 10. The results using all 11 compounds in Table 1, each added to cells at different concentrations 48 hours before extracts were prepared, are summarized in Table 3.

[2] = tested on: swine class I promoter (PD1); experiment: Luciferase assay, FRTL-5 cells stably transfected with class I promoter-luciferase chimeras; type: cell-based; details: for inhibition at 10 µM / inhibition at 25 µM / inhibition at 100 µM / inhibition at 1000 µM: Sus scrofa
Text: The swine PD1 5′-flanking sequence-CAT chimeras (−1100, −203, and −127), as well as two mutants with the CRE site with −107 to −100 bp deleted (−203ΔCRE and −127ΔCRE) were used to create luciferase reporter gene constructs. The inserts were released by restriction enzyme digestion, purified from agarose gel using QIAEX (QIAGEN, Chatsworth, Calif.) and ligated in the NheI-HindIII site of the PGL-2 basic vector (PROMEGA, Madison, Wis.) using a DNA ligation kit from TAKARA biomedicals (TAKARA SHUZO Co). JM109 bacterial competent cells (PROMEGA, Madison, Wis.) were transformed with the ligation reaction and plated in agar plates for 12 h at 37° C. The colonies were picked and screened with minipreps using QIAprep spin plasmid kit (QIAGEN, Chatsworth, Calif.) and restriction enzyme digestion. The plasmids were then purified by CsCl gradient centrifugation.
The PD1-PGL-2 basic constructs and the Class II-PGL-2 basic constructs were stably transfected in the FRTL-5 cells using a Lipofectamine (GIBCO, Life Technologies, Inc.) method. Near confluent cells in 6H medium were cotransfected with 20 μg of plasmid DNA and 2 μg of a pcDNA3neo or a pPUR selection vector (CLONTECH, Palo Alto, Calif.). After 24-48 hours, 400 μg/ml of G418 (GIBCO, Life Technologies, Inc.) or 10 μM of puromycin (SIGMA) were added to the medium. After 3 weeks the antibiotic-resistant colonies were cloned by limiting dilution and screened to determine their interferon sensitivity. At least 5 cell lines of each construct were isolated, each of whose activity was increased by adding 100 U/ml γ interferon to the medium of the cells. The following data (Tables 10-13) were obtained with one clone of each of the class I or class II-luciferase chimera, but were representative of at least three other clones of each.
Luciferase activity was measured using the Luciferase assay system (PROMEGA, Madison, Wis.). Briefly, treated or untreated cells from a 100 mm culture dish were washed with PBS, scraped and collected in microfuge tubes. The pellet was dissolved in 100 μl 1× reporter lysis buffer and incubated at room temperature for 15 minutes. Cells were frozen in dry ice plus ethanol and thawed in water at room temperature. After vortexing for 10 sec, tubes were centrifuged at 12,000×g for 5 min. Twenty μl of the supernatant were mixed with 100 μl of Luciferase assay reagent and immediately placed in a luminometer. Light was measured for a period of 10 sec after a 2 sec delay.
Treatment of cells, maintained either in the presence of TSH or its absence, with 100 U/ml interferon, increased class I and class II promoter activity (Table 10). In this experiment FRTL-5 cells were grown to 80% confluency in 6H medium with TSH then treated with 100 U/ml γ-interferon, 5 mM MMI or both together. Luciferase activity was measured after 40 hours as described. Several points are notable. First, interferon increases both class I and class II promoter activity in the stable transfectants. Second, MMI inhibits both interferon-increased class I and interferon-increased class II promoter activity.

[3] = FRTL-5, 10 μM, 100 U/ml γ-interferon, 6H medium, 40 hours, read-out: % inhibition of IFN-increased p(−203)LUC class I promoter activity
[4] = FRTL-5, 25 μM, 6H medium, 40 hours, read-out: % inhibition of basal p(−203)LUC class I promoter activity
[5] = FRTL-5, 100 μM, 6H medium, 40 hours, read-out: % inhibition of basal p(−203)LUC class I promoter activity
[6] = FRTL-5, 100 μM, 100 U/ml γ-interferon, 6H medium, 40 hours, read-out: % inhibition of IFN-increased p(−203)LUC class I promoter activity
[7] = FRTL-5, 1.0 mM, 6H medium, 40 hours, read-out: % inhibition of basal p(−203)LUC class I promoter activity
[8] = FRTL-5, 1.0 mM, 100 U/ml γ-interferon, 6H medium, 40 hours, read-out: % inhibition of IFN-increased p(−203)LUC class I promoter activity
[9] = FRTL-5, read-out: % inhibition of IFN-increased p(−203)LUC class I promoter activity
[10] = FRTL-5, read-out: % inhibition of basal p(−203)LUC class I promoter activity

| SMILES | % increase over control relative to the maximal (5 mM) MMI-increased silencer complex which is set at 10 ([1]; 10 μM) | % increase over control relative to the maximal (5 mM) MMI-increased silencer complex which is set at 10 ([1]; 100 μM) | % increase over control relative to the maximal (5 mM) MMI-increased silencer complex which is set at 10 ([1]; 1 mM) | % increase over control relative to the maximal (5 mM) MMI-increased silencer complex which is set at 10 ([1]; 5 mM) | inhibition at 10 µM [2, 3] | inhibition at 25 µM [2, 4] | inhibition at 100 µM [2, 5] | inhibition at 100 µM [2, 6] | inhibition at 1000 µM [2, 7] | inhibition at 1000 µM [2, 8] | further results |
| --- | --- | --- | --- | --- | --- | --- | --- | --- | --- | --- | --- |
| Cn1ccnc1S [Compound 1, 1-Methylimidazole-2-thiol] | 0% | 0% | 2 ± 1% | 10% | 0% | 0% | 0% | 0% | 0% | 45 ± 10% | effect on basal p(−203) class I luciferase activity ([2]; 1 or 5 mM, stable transfectants): no significant effect; Luciferase activity + 5 mM MMI ([2]; Vector-LUC Control, 40 hours): 100 ± 6 % Control; Luciferase activity +γ-IFN + 5 mM MMI ([2]; Vector-LUC Control, 40 hours): 105 ± 5 % Control; Luciferase activity + 5 mM MMI ([2]; p(−127) class I-LUC, 40 hours): 135 ± 17 % Control; Luciferase activity +γ-IFN + 5 mM MMI ([2]; p(−127ΔCRE) class I-LUC, 40 hours): 101 ± 4 % Control; Luciferase activity + 5 mM MMI ([2]; p(−203) class I-LUC, 40 hours): 105 ± 38 % Control; Luciferase activity +γ-IFN + 5 mM MMI ([2]; p(−203ΔCRE) class I-LUC, 40 hours): 106 ± 6 % Control |
| Cc1ncc([N+](=O)[O-])n1CCO [Compound 2, 2-Methyl-5-nitro-1-imidazole ethanol] | 0% | 0% | 5 ± 1% | 10 ± 2% | 0% | 0% | 0% | 10 ± 6% | 42 ± 6% | 57 ± 5% |  |
| Sc1ncc[nH]1 [Compound 3, 2-Mercaptoimidazole] | 0% | 0% | 0% | 0% |  | 0% | 0% |  | 0% |  |  |
| Sc1nc2ccccc2[nH]1 [Compound 4, 2-Mercaptobenzimidazole] | 0% | 3 ± 0.5% | 9 ± 1.5% | Insol |  |  |  |  |  |  | inhibition at 10 µM [2, 9]: 0%; inhibition at 100 µM [2, 9]: 0%; inhibition at 1000 µM [2, 9]: 39 ± 6%; inhibition at 25 µM [2, 10]: 0%; inhibition at 100 µM [2, 10]: 0%; inhibition at 1000 µM [2, 10]: 50 ± 5% |
| O=[N+]([O-])c1ccc2[nH]c(S)nc2c1 [Compound 5, 2-Mercapto-5-nitrobenzimidazole] | 0% | 0% | 0% | Insol | 0% | 0% | 0% | 0% | 0% | 9 ± 7% |  |
| Cc1ccc2[nH]c(S)nc2c1 [Compound 6, 2-Mercapto-5-methylbenzimidazole] | 0% | 0% | 3 ± 2% | Insol |  | 0% | 0% |  | 0% | 19 ± 10% |  |
| CSc1nccn1C [Compound 7, S-Methylmethimazole] | 0% | 2 ± 1% | 6 ± 0.5% |  | 0% | 0% | 10 ± 6% | 24 ± 6% | 44 ± 4% | 62 ± 9% |  |
